Laboratory results from patent US20070105837A1, “Novel derivatives of 4a,5,9,10,11,12-hexahydrobenzofuro[3a,3,2][2]-benzazepine, method for the production thereof and use thereof in the production of medicaments” (priority 2003, published 2007).
Counter-ions that a name gives are not always drawn. Like-named read-outs stand apart in the source and are kept apart here.

Assays:
acetylcholinesterase = acetylcholinesterase (Homo sapiens, UniProt P22303); assay: biochemical
butyrylcholinesterase = butyrylcholinesterase (Homo sapiens, UniProt P06276); assay: biochemical
Chain of butyrylcholinesterase (P06276 29-602): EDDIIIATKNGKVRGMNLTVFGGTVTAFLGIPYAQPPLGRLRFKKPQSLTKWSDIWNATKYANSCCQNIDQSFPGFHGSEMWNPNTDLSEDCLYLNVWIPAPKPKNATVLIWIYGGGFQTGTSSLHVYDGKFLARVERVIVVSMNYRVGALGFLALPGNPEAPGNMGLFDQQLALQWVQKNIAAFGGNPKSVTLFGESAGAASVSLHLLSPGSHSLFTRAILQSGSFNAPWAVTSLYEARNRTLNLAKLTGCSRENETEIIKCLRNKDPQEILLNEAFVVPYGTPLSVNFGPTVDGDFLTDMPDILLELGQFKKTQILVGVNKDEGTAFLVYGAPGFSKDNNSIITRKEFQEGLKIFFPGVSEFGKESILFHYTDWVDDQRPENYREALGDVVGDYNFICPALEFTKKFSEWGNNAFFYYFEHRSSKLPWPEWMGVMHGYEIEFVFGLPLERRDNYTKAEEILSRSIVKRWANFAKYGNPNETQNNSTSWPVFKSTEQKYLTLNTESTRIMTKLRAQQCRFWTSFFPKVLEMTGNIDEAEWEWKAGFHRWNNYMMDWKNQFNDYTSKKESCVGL

[1] = read-out: Acetylcholinesterase IC-50
[2] = read-out: Butyrylcholinesterase IC-50

Chain of acetylcholinesterase (P22303 32-614, species assumed): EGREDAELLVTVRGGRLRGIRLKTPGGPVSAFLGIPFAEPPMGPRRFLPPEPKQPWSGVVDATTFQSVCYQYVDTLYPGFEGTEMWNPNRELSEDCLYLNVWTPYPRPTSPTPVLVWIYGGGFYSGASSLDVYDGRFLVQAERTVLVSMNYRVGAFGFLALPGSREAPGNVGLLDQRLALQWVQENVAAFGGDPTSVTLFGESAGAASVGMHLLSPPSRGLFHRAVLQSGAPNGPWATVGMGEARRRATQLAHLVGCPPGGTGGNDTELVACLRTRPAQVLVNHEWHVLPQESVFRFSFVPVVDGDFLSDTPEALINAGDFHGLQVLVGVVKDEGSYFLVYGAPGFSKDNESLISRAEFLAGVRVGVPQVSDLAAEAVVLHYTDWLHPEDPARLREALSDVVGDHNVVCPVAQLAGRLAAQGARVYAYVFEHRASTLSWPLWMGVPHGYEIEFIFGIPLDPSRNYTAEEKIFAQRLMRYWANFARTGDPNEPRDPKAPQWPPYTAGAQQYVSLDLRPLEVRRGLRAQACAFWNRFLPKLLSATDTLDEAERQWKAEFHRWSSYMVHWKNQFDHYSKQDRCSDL

| Compound | IC50 (acetylcholinesterase; [1]) [µM] | IC50 (butyrylcholinesterase; [2]) [µM] | IC50 (acetylcholinesterase) [µM] | IC50 (butyrylcholinesterase) [µM] |
| --- | --- | --- | --- | --- |
| COc1ccc2c3c1O[C@@H]1C[C@@H](O)C=C[C@]31CCN(/C(=N/C#N)SC)C2 [Example 27, Methyl (4aR,6R,8aR)-N11-cyano-6-hydroxy-3-methoxy-4a,5,9,10-tetrahydro-6H-[1]benzofuro [3a,3,2-ef][2]benzazepine-11(12H)-carboximidothioate] | > 100 | > 100 | – | – |
| COc1cc(Br)c2c3c1O[C@H]1C[C@@H](O)C=C[C@@]31CCN(CCN1CCOCC1)C2 [Example 57, (4aS,6R,8aS)-1-bromo-4a,5,9,10,11,12-hexahydro-11-(2-(mopholin-4-yl)-ethyl)-3-methoxy-6H-[1]benzafuro[3a,3,2-ef][2]benzazepin-6-ol] | – | – | > 100 | 2.7 |
| COc1cc(Br)c2c3c1O[C@@H]1C[C@H](O)C=C[C@]31CCN(Cc1ccccc1)C2 [Example 6, (4aR,6S,8aR)-11-benzyl-1-bromo-4a,5,9,10,11,12-hexahydro-3-methoxy-6H-[1]benzofuro[3a,3,2-ef][2]benzazepin-6-ol] | > 100 | 19 | – | – |
| COc1ccc2c3c1O[C@@H]1C[C@@H](O)C=C[C@]31CCN(C(N)=O)C2 [Example 25, (4aR,6R,8aR)-4a,5,9,10-tetrahydro-6-hydroxy-3-methoxy-6H-[1]benzofuro[3a,3,2-ef][2]benzazepine-11(12H)-carboxamide] | > 100 | > 100 | – | – |
| COc1ccc2c3c1O[C@@H]1C[C@@H](N)C=C[C@]31CCN(C)C2 [Example 28, (4aR,6R,8aR)-4a,5,9,10,11,12-hexahydro-3-methoxy-11-methyl-6H-benzofuro[3a,3,2-ef][2]benzazepin-6-amine, dihydrochloride] | > 100 | > 100 | – | – |
| COc1ccc2c3c1O[C@H]1C[C@@H](O)C=C[C@@]31CCN(c1ncccn1)C2 [Example 37, (4aS,6R,8aS)-3-methoxy-11-(2-pyrimidinyl)-5,6,9,10,11,12-hexahydro-4aH-[1]benzofuro [3a,3,2-ef][2]benzazepin-6-ol] | > 100 | > 100 | – | – |
| COc1ccc2c3c1O[C@H]1C[C@H](O)C=C[C@@]31CCN(C(=O)NC(C)C)C2 [Example 14] | > 100 | > 100 | – | – |
| C#CCN1CC[C@@]23C=C[C@@H](O)C[C@@H]2Oc2c(OC)ccc(c23)C1 [Example 18, (4aS,6S,8aS)-4a,5,9,10,11,12-hexahydro-3-methoxy-11-propargyl-6H-[1]benzofuro[3a,3,2-ef][2]benzazepin-6-ol] | > 100 | > 100 | – | – |
| COc1cc(Br)c2c3c1O[C@@H]1C[C@@H](O)C=C[C@]31CCNC2 [Example 3, (4aR,6R,8R)-1-bromo-4a,5,9,10,11,12-hexahydro-3-methoxy-6H-[1]benzofuro[3a,3,2-ef][2]benzazepin-6-ol.] | – | – | > 100 | > 100 |
| COc1ccc2c3c1O[C@H]1C[C@H](O)C=C[C@@]31CCN(C(N)=O)C2 [Example 21, (4aS,6S,8aS)-4a,5,9,10-tetrahydro-6-hydroxy-3-methoxy-6H-[1]benzofuro[3a,3,2-ef][2]benzazepine-11(12H)-carboxamide] | > 100 | > 100 | – | – |
| COc1ccc2c3c1O[C@H]1C[C@@H](O)C=C[C@@]31CCN(c1nc(Cl)nc(Cl)n1)C2 [Example 42, (4aS,6R,8aS)-11-(4,6-dichloro-1,3,5,-triazin-2-yl)-3-methoxy-5,6,9,10,11,12-hexahydro-4aH-[1]benzofuro[3a,3,2-ef][2]benzazepin-6-ol] | > 100 | > 100 | – | – |
| COc1ccc2c3c1O[C@H]1C[C@@H](O)C=C[C@@]31CCN(CCCCN1CCCCC1)C2 [Example 50] | – | – | 0.036 | 0.61 |
| COc1ccc2c3c1O[C@H]1C[C@@H](O)C=C[C@@]31CCN(C(N)=S)C2 (stereo in doubt) [Example 30, (4aS,6R,8aS)-6-hydroxy-3-methoxy-5,6,9,10-tetrahydro-4aH-[1]benzofuro[3a,3,2-ef][2]benzazepine-11(12H)-carbothioamide] | > 100 | > 100 | – | – |
| COc1ccc2c3c1O[C@@H]1C=C(c4ccccc4)C=C[C@@]31CCN(C)C2 [Example 59, (4aS,8aS)-D5,6-4a,5,9,10,11,12-hexahydro-11-methyl-3-methoxy-6-phenyl-6H-[1]benzofuro[3a,3,2-ef][2]benzazepine] | 52 | 25 | – | – |
| CNC(=S)N1CC[C@]23C=C[C@@H](O)C[C@H]2Oc2c(OC)cc(Br)c(c23)C1 [Example 11, (4aR,6S,8aR)-1-bromo-4a,5,9,10-tetrahydro-6-hydroxy-3-methoxy-6H-[1]benzofuro-[3a,3,2-et][2]benzazepine-11(12H)-thiocarbonic acid methylamide] | > 100 | > 100 | – | – |
| COC(=O)CCC(=O)N1CC[C@]23C=C[C@@H](O)C[C@H]2Oc2c(OC)cc(Br)c(c23)C1 [Example 9, Methyl-4-((4aR,6S,8aR)-1-bromo-4a,5,9,10,11,12-hexahydro-6-hydroxy-3-methoxy-6H-benzofuro[3a,3,2-ef][2]benzazepine-11-yl)gamma-oxobutyrate] | > 100 | > 100 | – | – |
| COc1cc(Br)c2c3c1O[C@H]1C[C@H](O)C=C[C@@]31CCNC2 [Example 1, (4aS,6S,8S)-1-bromo-4a,5,9,10,11,12-hexahydro-3-methoxy-6H-[1]benzofuro[3a,3,2-ef][2]benzazepin-6-ol.] | – | – | > 100 | > 100 |
| COc1ccc2c3c1O[C@H]1C=C(C(C)C)C=C[C@@]31CCN(C)C2 [Example 61, (4aS,8aS)-D5,6-4a,5,9,10,11,12-hexahydro-6-(isopropyl)-11-methyl-3-methoxy-6H-[1]benzofuro [3a,3,2-ef][2]benzazepine] | > 100 | 9 | – | – |
| CNC(=S)N1CC[C@]23C=C[C@H](O)C[C@H]2Oc2c(OC)cc(Br)c(c23)C1 [Example 4, (4aR,6R,8aR)-1-brorno-4a,5,9,10-tetrahydro-6-hydroxy-3-methoxy-6H-[1]benzofuro-[3a,3,2-ef][2]benzazepine-11(12H)-thiocarbonic acid methylamide] | > 100 | > 100 | – | – |
| COc1cc(Br)c2c3c1OC1C[C@H](O)C=C[C@]31CCN(CCN1CCOCC1)C2 (single isomer, unassigned) [Example 58] | > 100 | 53 | – | – |
| CCN1CC[C@]23C=C[C@H](O)C[C@H]2Oc2c(OC)ccc(c23)C1 [Example 26, (4aR,6R,8aR)-4a,5,9,10,11,12-hexahydro-3-methoxy-11-ethyl-6H-[1]benzofuro[3a,3,2,ef][2]benzazepin-6-ol] | – | – | > 100 | > 100 |
| COc1ccc2c3c1O[C@H]1C=C(C)C=C[C@@]31CCN(C)C2 [Example 60, (4aS,8aS)-D5,6--4a,5,9,10,11,12-hexahydro-6,11-dimethyl-3-methoxy-6H-[1]benzofuro[3a,3,2-ef][2]benzazepine] | 80 | 200 | – | – |
| C=CCNC(=S)N1CC[C@@]23C=C[C@@H](O)C[C@@H]2Oc2c(OC)ccc(c23)C1 [Example 20, (4aS,6S,8aS)-6-hydroxy-3-methoxy-4a,5,9,10-tetrahydro-6H-[1]benzofuro[3a,3,2-ef][2]benzazepine-11(12H)-thiocarbonic acid allylamide] | > 100 | > 100 | – | – |
| COc1ccc2c3c1O[C@H]1C[C@@H](O)C=C[C@@]31CCN(CC(N)=O)C2 [Example 34, 2-((4aS,6R,8aS)-6-hydroxy-3-methoxy-5,6,9,10-tetrahydro-4aH-[1]benzofuro[3a,3,2-ef][2]benzazepine-11(12H)-yl)acetamide] | > 100 | 78 | – | – |
